ChEMBL document CHEMBL1137112, “4-Acylamino-6-arylfuro[2,3-d]pyrimidines: potent and selective glycogen synthase kinase-3 inhibitors” (Bioorg Med Chem Lett, 2004)

How the values were obtained:
[1] = molecular target: Vascular endothelial growth factor receptor 2 (Homo sapiens, UniProt P35968); experiment: Inhibition of Vascular endothelial growth factor receptor 2 kinase
[2] = molecular target: Cyclin-dependent kinase 2 (Homo sapiens, UniProt P24941); experiment: Inhibition of cyclin-dependent kinase 2
[3] = molecular target: Glycogen synthase kinase-3 beta (Homo sapiens, UniProt P49841); experiment: Inhibition of human Glycogen synthase kinase-3 beta
[4] = tested on: L6; experiment: Potency of compound in glycogen accumulation in L6 cells; type: functional, cell-based; conditions: Rattus norvegicus

Chain of Glycogen synthase kinase-3 beta (P49841 whole entry): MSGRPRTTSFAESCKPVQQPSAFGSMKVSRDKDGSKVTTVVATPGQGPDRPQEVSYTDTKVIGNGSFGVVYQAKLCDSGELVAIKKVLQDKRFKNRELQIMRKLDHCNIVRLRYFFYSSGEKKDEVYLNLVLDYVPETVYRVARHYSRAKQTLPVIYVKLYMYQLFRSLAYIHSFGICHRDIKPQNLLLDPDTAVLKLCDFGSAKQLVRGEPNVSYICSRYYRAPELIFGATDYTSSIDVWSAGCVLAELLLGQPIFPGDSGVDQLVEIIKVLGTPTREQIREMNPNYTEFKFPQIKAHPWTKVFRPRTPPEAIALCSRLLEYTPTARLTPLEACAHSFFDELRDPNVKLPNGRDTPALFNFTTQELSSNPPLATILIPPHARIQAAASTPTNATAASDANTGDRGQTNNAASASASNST
Chain of Vascular endothelial growth factor receptor 2 (P35968 whole entry): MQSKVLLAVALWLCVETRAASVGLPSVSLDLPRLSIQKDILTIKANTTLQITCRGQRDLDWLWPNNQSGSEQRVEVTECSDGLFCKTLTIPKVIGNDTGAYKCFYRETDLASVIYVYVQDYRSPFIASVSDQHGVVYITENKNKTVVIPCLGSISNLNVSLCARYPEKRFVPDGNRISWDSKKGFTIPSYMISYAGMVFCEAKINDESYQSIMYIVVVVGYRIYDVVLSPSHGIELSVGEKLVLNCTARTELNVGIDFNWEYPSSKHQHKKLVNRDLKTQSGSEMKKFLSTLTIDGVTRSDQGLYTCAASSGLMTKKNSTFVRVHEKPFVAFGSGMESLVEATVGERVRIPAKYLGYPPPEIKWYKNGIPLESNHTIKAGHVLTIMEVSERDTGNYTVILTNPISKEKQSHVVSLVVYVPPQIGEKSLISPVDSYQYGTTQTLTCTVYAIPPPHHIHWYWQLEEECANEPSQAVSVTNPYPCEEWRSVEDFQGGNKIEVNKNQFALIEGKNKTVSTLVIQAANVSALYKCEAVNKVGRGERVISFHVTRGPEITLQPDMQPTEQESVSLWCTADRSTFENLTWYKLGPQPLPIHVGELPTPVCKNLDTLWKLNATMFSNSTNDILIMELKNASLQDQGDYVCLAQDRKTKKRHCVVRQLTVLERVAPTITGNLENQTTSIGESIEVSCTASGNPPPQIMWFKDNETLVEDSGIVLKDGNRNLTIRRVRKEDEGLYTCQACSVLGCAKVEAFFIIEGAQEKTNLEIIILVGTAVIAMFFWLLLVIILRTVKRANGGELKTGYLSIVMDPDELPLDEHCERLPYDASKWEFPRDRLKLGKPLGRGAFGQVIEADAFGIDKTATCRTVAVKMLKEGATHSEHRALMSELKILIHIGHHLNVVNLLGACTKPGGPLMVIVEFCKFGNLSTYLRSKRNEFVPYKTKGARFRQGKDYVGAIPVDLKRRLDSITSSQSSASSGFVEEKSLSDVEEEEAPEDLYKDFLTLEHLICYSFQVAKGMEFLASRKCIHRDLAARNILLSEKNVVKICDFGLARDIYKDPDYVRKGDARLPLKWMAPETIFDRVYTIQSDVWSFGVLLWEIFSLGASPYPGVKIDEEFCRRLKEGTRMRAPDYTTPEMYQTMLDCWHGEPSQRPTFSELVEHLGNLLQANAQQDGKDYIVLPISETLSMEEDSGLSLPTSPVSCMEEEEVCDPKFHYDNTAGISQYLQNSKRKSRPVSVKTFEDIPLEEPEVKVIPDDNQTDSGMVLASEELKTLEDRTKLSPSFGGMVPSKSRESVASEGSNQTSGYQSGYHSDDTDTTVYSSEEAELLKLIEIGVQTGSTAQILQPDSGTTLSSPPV

Compound	IC50 [1] [nM]	IC50 [2] [nM]	IC50 [3] [nM]	EC50 [4] [nM]
O=C(Nc1ncnc2oc(-c3cccnc3)cc12)C1CCCC1	> 24000	450	5	390
O=C(Nc1ncnc2oc(-c3ccc(Cl)cc3)cc12)C1CC1	2040	> 20000	1000	
O=C(Nc1ncnc2oc(-c3ccccc3)cc12)C1CCCC1	> 23000	> 19000	20	> 10000
O=C(Nc1ncnc2oc(-c3ccc(F)cc3)cc12)C1CC1	2040	> 19000	575	
O=C(Nc1ncnc2oc(-c3ccccc3)cc12)C1CC1	830	> 21000	170	
O=C(Nc1ncnc2oc(-c3cccnc3)cc12)C1CC1	3240	440	5	740
COc1ccc(-c2oc3ncnc(N)c3c2-c2cccnc2)cc1			80	
COc1ccc(-c2cc3c(NC(=O)c4cccc(F)c4)ncnc3o2)cc1	21900	> 21000	> 35000	
Cc1ccc(-c2cc3c(NC(=O)C4CC4)ncnc3o2)cc1 [GW819230X]	630	> 21000	617	

Further lines, with some results ahead:

IC50 [1] [nM]	IC50 [2] [nM]	IC50 [3] [nM]	Compound	EC50 [4] [nM]
> 48000	> 20000	> 34000	COc1ccc(-c2cc3c(NC(=O)N4CCOCC4)ncnc3o2)cc1	
12300	> 21000	1950	COc1ccc(-c2cc3c(NC(=O)N4CCCC4)ncnc3o2)cc1	
1020	> 19000	30	COc1ccc(-c2cc3c(NC(=O)C4CCCC4)ncnc3o2)cc1	
> 20000	> 20000	240	Cc1ccc(-c2cc3c(NC(=O)C4CCCC4)ncnc3o2)cc1	
> 47000	> 20000	537	COc1ccc(-c2cc3c(NC(=O)CCSC)ncnc3o2)cc1	
> 48000	> 19000	320	COc1ccc(-c2cc3c(NC(=O)CC4CCCC4)ncnc3o2)cc1	
> 48000	> 21000	130	COc1ccc(-c2cc3c(NC(=O)C(C)C)ncnc3o2)cc1	
> 20000	> 20000	550	O=C(Nc1ncnc2oc(-c3ccc(Cl)cc3)cc12)C1CCCC1	
> 48000	> 20000	2400	COc1ccc(-c2cc3c(NC(=O)c4ccco4)ncnc3o2)cc1	
> 19000	> 19000	219	O=C(Nc1ncnc2oc(-c3ccc(F)cc3)cc12)C1CCCC1	
> 48000	> 20000	1820	COc1ccc(-c2cc3c(NC(=O)C4CCCCC4)ncnc3o2)cc1	
> 48000	> 19000	437	CCCCCC(=O)Nc1ncnc2oc(-c3ccc(OC)cc3)cc12	
3550	> 20000	316	COc1ccc(-c2cc3c(NC(=O)C4CC4)ncnc3o2)cc1	
